# Test results as given in patent US20230135608A1 (CURACLE CO., LTD., priority 2021, published 2023).
# Counter-ions that a name gives are not always drawn.
# Experiments:
# [1] = test system: streptozotocin (STZ, 150 mg/kg)-induced diabetic nephropathy mouse model; assay: UUO renal fibrosis and streptozotocin-induced diabetic nephropathy mouse models; format: in vivo; conditions: UUO and STZ (150 mg/kg) mouse models
# Experimental: As a result, it was confirmed that a dose of 25 mg/kg was effective for diabetic nephropathy. When the dose confirmed in the animal model is converted into HED (Human Equivalent Dose), it is calculated as follows. HED=Animal dose in mg/kg×{Animal weight in kg/Human weight in kg}×60 kg=25 mg/kg×0.08×60 kg=120 mg
# [2] = test system: rat renal fibroblast cell line (NRK-49F); conditions: cited from earlier work
# [3] = test system: RMCs and rat glomerular mesangial cells; conditions: cited from earlier work
# [4] = test system: AD-293 cells; conditions: cited from earlier work
# [5] = test system: NRK-49F and RMC cells; conditions: cited from earlier work
# [6] = test system: Nrf2; conditions: cited from earlier work
# [7] = test system: NRK-49F cells; conditions: DMF 40 μmol/1, semi-quantitative RT-PCR; cited from earlier work
# [8] = test system: UUO-induced renal fibrosis model; conditions: cited from earlier work
# [9] = test system: TGF-β/Smad signaling and ECM expression; conditions: chemical inhibitor of NQO1 or HO-1 added to DMF; cited from earlier work
# [10] = cited from earlier work
smiles,measurement,setting,value
"COC(=O)/C=C/C(=O)OC [DMF, Dimethyl fumarate]",dose effective for diabetic nephropathy,[1],25 mg/kg
same,collagen type 1 induced by TGF-β (mRNA and protein),[2]; 24 hours of TGF-β treatment,dose-dependently inhibit
same,"TGF-β-mediated expression of PAI-1, a-SMA, and fibronectin mRNA and protein",[2],"inhibited the TGF-β-mediated expression of PAI-1, a-SMA, and fibronectin mRNA and protein dose-dependently"
same,TGF-β-induced expression of PAI-1 protein,[3],inhibitory effect
same,activity of the PAI-1 promoter induced by TGF-β,"[4]; AD-293 cells, PAI-1-Luc reporter",inhibited
same,activity of the (CAGA)9MLP-Luc promoter induced by TGF-β or ALK5,[4]; reporter with 9 copies of the Smad3 binding site,inhibited
same,Smad3 phosphorylation induced by TGF-β,[5],inhibited
same,Nrf2 protein expression,[6]; NRK-49F cells,sharp increase
same,nuclear accumulation of Nrf2,[6]; NRK-49F cells,induced the nuclear accumulation of Nrf2 dose-dependently
same,expression of Nrf2 protein,[6]; RMC cells,rapidly increased
same,expression of p62,[6]; after DMF treatment,increased 6 h after the DMF treatment and up to 12 hours thereafter
same,expression of NQO1 and HO-1,[7],increased
same,"expression of collagen type I, fibronectin, PAI-1 and α-SMA related to fibrosis",[8],"decreased the expression of collagen type I, fibronectin, PAI-1 and α-SMA"
same,expression of p-Smad3 increased by UUO,[8],decreased the expression of p-Smad3
COC1=CC(=O)c2c(c(COc3ccc([N+](=O)[O-])cc3)c(C)n2C)C1=O [ES936],reversal of the inhibitory effect of DMF on the TGF-β/Smad signaling and ECM expression,[9],did not reverse
"COC(=O)/C=C/C(=O)O [MMF, monomethyl fumarate]",detection of MMF after administration,[10]; 24 hours after administration of the drug,not detected 24 hours after administration
same,elimination half-life of MMF,[10]; in vivo,about 1 hour
same,accumulation of MMF in the body,[10]; repeated administration,does not accumulate in the body even after repeated administration
